According to PubChem BioAssay (NCI):
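Five concentrations, 48 hours, 96-well plates. GI50: concentration for 50% inhibition of growth. TGI: concentration producing complete growth inhibition.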

Experiments:
Assay in all cases: inhibition of tumour cell growth, NCI panel, 48 h
SK-OV-3 ovarian = test system: SK-OV-3 ovarian
MALME-3M melanoma = test system: MALME-3M melanoma
MOLT-4 leukemia = test system: MOLT-4 leukemia
IGROV1 ovarian = test system: IGROV1 ovarian
K-562 leukemia = test system: K-562 leukemia
OVCAR-3 ovarian = test system: OVCAR-3 ovarian
SK-MEL-2 melanoma = test system: SK-MEL-2 melanoma
CAKI-1 renal = test system: CAKI-1 renal
MCF7 breast = test system: MCF7 breast
MDA-MB-231 breast = test system: MDA-MB-231 breast

## CCOC(=O)C(=O)Nc1ccc(Cl)c(C(F)(F)F)c1
SK-OV-3 ovarian
  TGI: > 100 µM
MALME-3M melanoma
  TGI: > 100 µM
MOLT-4 leukemia
  TGI: > 100 µM
IGROV1 ovarian
  TGI: > 100 µM
K-562 leukemia
  TGI: > 100 µM
OVCAR-3 ovarian
  TGI: > 100 µM
SK-MEL-2 melanoma
  TGI: > 100 µM
CAKI-1 renal
  TGI: > 100 µM

## CC(=O)OC12CC(C)C3(O)C4C=C(C)C(=O)[C@@]4(O)CC(CO)=C[C@H]3C1C2(C)C (stereo partly specified)
SK-OV-3 ovarian
  TGI: > 1000 µM
MALME-3M melanoma
  GI50: > 1000 µM
  TGI: > 1000 µM
MOLT-4 leukemia
  TGI: > 1000 µM
IGROV1 ovarian
  GI50: > 1000 µM
  TGI: > 1000 µM
OVCAR-3 ovarian
  GI50: > 1000 µM
  TGI: > 1000 µM
SK-MEL-2 melanoma
  GI50: > 1000 µM
  TGI: > 1000 µM
MCF7 breast
  GI50: > 1000 µM
  TGI: > 1000 µM

## Cn1c(=O)oc2cc(C3CCC(=O)N3Cc3ccc(Cl)cc3)ccc21 (stereo unspecified)
SK-OV-3 ovarian
  TGI: > 100 µM
MALME-3M melanoma
  TGI: > 100 µM
MOLT-4 leukemia
  TGI: > 100 µM
IGROV1 ovarian
  TGI: > 100 µM
K-562 leukemia
  TGI: > 100 µM
SK-MEL-2 melanoma
  TGI: > 100 µM
CAKI-1 renal
  TGI: > 100 µM

## CC(=O)NC1=C(NCc2ccc(Cl)cc2)C(=O)c2ccccc2C1=O
SK-OV-3 ovarian
  TGI: > 50 µM
MALME-3M melanoma
  TGI: 16.5 µM
MOLT-4 leukemia
  TGI: > 50 µM
IGROV1 ovarian
  TGI: 49.6 µM
K-562 leukemia
  TGI: 16.7 µM
OVCAR-3 ovarian
  TGI: 13.1 µM
SK-MEL-2 melanoma
  TGI: 12.2 µM

## C=CCN(CC=C)CC(C(C)=O)C(c1ccccc1)c1c(O)c2ccccc2oc1=O (stereo unspecified)
SK-OV-3 ovarian
  TGI: > 100 µM
MALME-3M melanoma
  TGI: > 100 µM
MOLT-4 leukemia
  TGI: > 100 µM
IGROV1 ovarian
  TGI: > 100 µM
K-562 leukemia
  TGI: > 100 µM
SK-MEL-2 melanoma
  TGI: > 100 µM
CAKI-1 renal
  TGI: > 100 µM

## COc1ccccc1NC(=O)C1=C(C)NC(C)=C(C(=O)Nc2ccccc2OC)C1c1cccc2c1OCO2
SK-OV-3 ovarian
  TGI: > 100 µM
MALME-3M melanoma
  TGI: > 100 µM
MOLT-4 leukemia
  TGI: > 100 µM
IGROV1 ovarian
  TGI: > 100 µM
K-562 leukemia
  TGI: > 100 µM
OVCAR-3 ovarian
  TGI: > 100 µM
SK-MEL-2 melanoma
  TGI: > 100 µM
CAKI-1 renal
  TGI: > 100 µM

## O=C(O)c1ccc(C2C3C=CC(C3)C2[N+](=O)[O-])cc1 (stereo unspecified)
SK-OV-3 ovarian
  TGI: > 100 µM
MALME-3M melanoma
  TGI: > 100 µM
MOLT-4 leukemia
  TGI: > 100 µM
IGROV1 ovarian
  TGI: > 100 µM
K-562 leukemia
  TGI: > 100 µM
OVCAR-3 ovarian
  TGI: > 100 µM
SK-MEL-2 melanoma
  TGI: > 100 µM
CAKI-1 renal
  TGI: > 100 µM

## Cc1cc2c(cc1Br)C1(C)CCC(C)C1(C)O2 (stereo unspecified)
SK-OV-3 ovarian
  TGI: > 100 µM
MALME-3M melanoma
  TGI: 42.1 µM
MOLT-4 leukemia
  TGI: 35.6 µM
IGROV1 ovarian
  TGI: > 100 µM
K-562 leukemia
  TGI: 37.6 µM
OVCAR-3 ovarian
  TGI: 53.2 µM
SK-MEL-2 melanoma
  TGI: 37.8 µM
CAKI-1 renal
  TGI: > 100 µM

## COc1ccc(-c2cc(-c3nnc(SCC(=O)Nc4ccc(C(C)=O)cc4)o3)c3ccccc3n2)cc1
MDA-MB-231 breast
  GI50: 19.4 µM
  TGI: > 100 µM
SK-OV-3 ovarian
  GI50: 27 µM
  TGI: 91.6 µM
MALME-3M melanoma
  GI50: 10.6 µM
  TGI: 91.8 µM
MOLT-4 leukemia
  GI50: > 100 µM
  TGI: > 100 µM
IGROV1 ovarian
  GI50: 20.2 µM
  TGI: > 100 µM
K-562 leukemia
  GI50: > 100 µM
  TGI: > 100 µM
OVCAR-3 ovarian
  GI50: 62.6 µM
  TGI: > 100 µM
SK-MEL-2 melanoma
  GI50: 30.4 µM
  TGI: > 100 µM
MCF7 breast
  GI50: > 100 µM
  TGI: > 100 µM

## CCC[CH2][Sn]1([CH2]CCC)[O]C(=O)CN=Cc2ccccc2[O]1
SK-OV-3 ovarian
  GI50: 0.922 µM
  TGI: 2.18 µM
MALME-3M melanoma
  GI50: 0.141 µM
  TGI: 0.469 µM
MOLT-4 leukemia
  GI50: 0.212 µM
  TGI: 0.75 µM
IGROV1 ovarian
  GI50: 2.27 µM
  TGI: > 100 µM
K-562 leukemia
  GI50: 0.192 µM
  TGI: 1.27 µM
OVCAR-3 ovarian
  GI50: 0.545 µM
  TGI: 1.82 µM
SK-MEL-2 melanoma
  GI50: 0.22 µM
  TGI: 0.555 µM
CAKI-1 renal
  GI50: 0.182 µM
  TGI: 0.631 µM

## C[Si]12OCCCN(CCO1)CCO2
SK-OV-3 ovarian
  TGI: > 100 µM
MALME-3M melanoma
  TGI: > 100 µM
MOLT-4 leukemia
  TGI: > 100 µM
IGROV1 ovarian
  TGI: > 100 µM
K-562 leukemia
  TGI: > 100 µM
OVCAR-3 ovarian
  TGI: > 100 µM
SK-MEL-2 melanoma
  TGI: > 100 µM
CAKI-1 renal
  TGI: > 100 µM

## COc1ccc(-c2nc3sc4c(c3c(=O)[nH]2)CCCC4)c2ccccc12
MDA-MB-231 breast
  TGI: > 100 µM
SK-OV-3 ovarian
  TGI: 3.74 µM
MALME-3M melanoma
  GI50: 0.749 µM
  TGI: 9.03 µM
MOLT-4 leukemia
  TGI: > 100 µM
IGROV1 ovarian
  TGI: > 100 µM
K-562 leukemia
  TGI: > 100 µM
CAKI-1 renal
  GI50: 0.45 µM
MCF7 breast
  TGI: > 100 µM

## COc1ccc(C2=C(c3cc(OC)c(OC)c(OC)c3)C(=O)OC2)cc1OC
MDA-MB-231 breast
  GI50: 0.576 µM
  TGI: > 75.9 µM
SK-OV-3 ovarian
  GI50: 8.27 µM
  TGI: > 100 µM
MOLT-4 leukemia
  GI50: 0.0466 µM
  TGI: > 100 µM
IGROV1 ovarian
  GI50: 0.353 µM
  TGI: > 55.6 µM
K-562 leukemia
  GI50: < 0.0153 µM
  TGI: > 100 µM
OVCAR-3 ovarian
  GI50: < 0.0112 µM
  TGI: < 0.0206 µM
SK-MEL-2 melanoma
  GI50: 0.0313 µM
  TGI: > 100 µM
CAKI-1 renal
  GI50: < 0.01 µM
  TGI: 1.24 µM
MCF7 breast
  GI50: < 0.0187 µM
  TGI: > 100 µM

## COc1ccc2c(c1)[C@@]1(C)CCC3c4ccc(O)cc4CCC3C1C2 (stereo partly specified)
MDA-MB-231 breast
  GI50: 13.8 µM
  TGI: 27.8 µM
SK-OV-3 ovarian
  GI50: 15.7 µM
  TGI: 29.6 µM
MALME-3M melanoma
  GI50: 18.7 µM
  TGI: 34.8 µM
MOLT-4 leukemia
  GI50: 17.8 µM
  TGI: 64.2 µM
IGROV1 ovarian
  GI50: 20.6 µM
  TGI: 48.2 µM
K-562 leukemia
  GI50: 14.8 µM
  TGI: 48.4 µM
OVCAR-3 ovarian
  GI50: 14.7 µM
  TGI: 29.1 µM
CAKI-1 renal
  GI50: 17.1 µM
  TGI: 32.7 µM
MCF7 breast
  GI50: 15.1 µM
  TGI: 30.8 µM

## CC[C@@]1(O)C(=O)OCc2c1cc1n(c2=O)Cc2cc3c(NC(=O)CN)cccc3nc2-1
MDA-MB-231 breast
  TGI: > 73 µM
SK-OV-3 ovarian
  TGI: 25.3 µM
MOLT-4 leukemia
  TGI: 0.161 µM
IGROV1 ovarian
  TGI: > 100 µM
K-562 leukemia
  TGI: > 100 µM
OVCAR-3 ovarian
  TGI: 9.34 µM
SK-MEL-2 melanoma
  TGI: 14.8 µM
CAKI-1 renal
  TGI: 2.14 µM
MCF7 breast
  TGI: > 100 µM

## COC(=O)C1=Cc2c(cc(OC)c(OC)c2OC)[C@H](c2ccc(OC)c(OC)c2OC)C1C(=O)OC (stereo partly specified)
SK-OV-3 ovarian
  TGI: > 100 µM
MALME-3M melanoma
  TGI: > 100 µM
MOLT-4 leukemia
  TGI: > 100 µM
IGROV1 ovarian
  TGI: > 100 µM
K-562 leukemia
  TGI: > 100 µM
OVCAR-3 ovarian
  TGI: > 100 µM
CAKI-1 renal
  TGI: > 100 µM

## CC(C)=CC1CC(C)C2(CCC3(C)CC4C(C(=O)CC4(C)O)/C(C=O)=C\CC32)O1 (stereo unspecified)
MDA-MB-231 breast
  TGI: 0.237 µM
SK-OV-3 ovarian
  TGI: 0.297 µM
MOLT-4 leukemia
  TGI: 0.0483 µM
IGROV1 ovarian
  TGI: 0.296 µM
K-562 leukemia
  TGI: 0.232 µM
OVCAR-3 ovarian
  TGI: 0.0503 µM
SK-MEL-2 melanoma
  TGI: 0.316 µM
CAKI-1 renal
  TGI: 0.192 µM
MCF7 breast
  TGI: 0.684 µM

## COc1ccc(/C=C\c2cc(OC)c(OC)c(OC)c2)cc1OCC(=O)Nc1nc2ccc(OC(F)(F)F)cc2s1
MDA-MB-231 breast
  GI50: 5.16 µM
  TGI: > 100 µM
SK-OV-3 ovarian
  GI50: 8.42 µM
  TGI: > 100 µM
MOLT-4 leukemia
  GI50: 4.21 µM
  TGI: > 100 µM
IGROV1 ovarian
  GI50: 5.64 µM
  TGI: > 100 µM
K-562 leukemia
  GI50: 3.43 µM
  TGI: > 100 µM
OVCAR-3 ovarian
  GI50: 3.37 µM
  TGI: 11.3 µM
SK-MEL-2 melanoma
  GI50: 3.29 µM
  TGI: > 100 µM
CAKI-1 renal
  GI50: 4.6 µM
  TGI: > 100 µM
MCF7 breast
  GI50: 2.89 µM
  TGI: > 100 µM

## CNC(=O)OCc1[nH]ccc2c(C)c3nc4ccc(OC)cc4c3cc12
SK-OV-3 ovarian
  TGI: > 100 µM
MALME-3M melanoma
  TGI: > 77.8 µM
MOLT-4 leukemia
  TGI: 3.89 µM
IGROV1 ovarian
  TGI: > 100 µM
K-562 leukemia
  TGI: > 22.5 µM
OVCAR-3 ovarian
  TGI: > 67.8 µM
SK-MEL-2 melanoma
  TGI: > 48 µM
CAKI-1 renal
  TGI: > 100 µM

## O=C(CCCn1ccnc1[N+](=O)[O-])NCCn1ccnc1[N+](=O)[O-]
SK-OV-3 ovarian
  TGI: > 100 µM
MALME-3M melanoma
  TGI: > 100 µM
MOLT-4 leukemia
  TGI: > 100 µM
IGROV1 ovarian
  TGI: > 100 µM
K-562 leukemia
  TGI: > 100 µM
OVCAR-3 ovarian
  TGI: > 100 µM
SK-MEL-2 melanoma
  TGI: > 100 µM
CAKI-1 renal
  TGI: > 100 µM
MCF7 breast
  TGI: > 100 µM

## CC1(C)N[P+]2(Nc3ccccc3O2)OC1=O (stereo unspecified)
MDA-MB-231 breast
  TGI: > 100 µM
SK-OV-3 ovarian
  TGI: > 100 µM
MALME-3M melanoma
  TGI: > 100 µM
MOLT-4 leukemia
  TGI: > 100 µM
IGROV1 ovarian
  TGI: > 100 µM
K-562 leukemia
  TGI: > 100 µM
OVCAR-3 ovarian
  TGI: > 100 µM
CAKI-1 renal
  TGI: > 100 µM
MCF7 breast
  TGI: > 100 µM
